One data set addresses Mouse GlucR (Mus musculus, UniProt Q61606). The data set is described as follows: cAMP assay 2 in […] mouse serum albumin, mouse GlucR. The settings on record: assay 2, […] Mouse Serum Albumin; relative potencies vs natural ligands.
Data set [1] addresses T1, Human GlucR (Homo sapiens, UniProt P47871). The data set is described as follows: cAMP assay 2 in 4.4% human serum albumin, human GlucR. The settings on record: assay 2, 4.4% Human Serum Albumin; relative potency GlucR (vs glucagon)/relative potency GLP1R (vs GLP1).
Another data set relates to DIO mice. The experiment in a line: Diet induced obesity (DIO) mouse model, study B. It counts as in vivo. Particulars: for BW day 14 (% change of vehicle mean) / HOMA / Hepatic TG (g TG/100g tissue) / Plasma NEFA / Plasma TG: day 14; for Glucose / Insulin: day 14, 4-hour fasting. As to the method: The body weight of the animals was monitored daily throughout the dosing period At day 14, blood samples for the measurement of plasma glucose and insulin from conscious mice were obtained after a 4-hour fasting period. Mice were then anaesthetized using isofluorane and terminal blood was collected from the capillary bed behind the eye. The following parameters were measured: blood chemistry measurements of triglycerides, total cholesterol, non-esterified fatty acids (NEFA), beta-hydroxybutyrate and fibroblast growth factor 21 (FGF21) (Table 16 and Table 17 below).

The target of a further data set is human serum albumin (Homo sapiens, UniProt P02768). The experiment in a line: Fraction of free peptide at plasma concentration of albumin, calculated from variation in cAMP generation with HSA concentration. The class given is in vitro ADME. Details: purchased Sigma Aldrich.
human serum albumin, sequence (P02768 25-609): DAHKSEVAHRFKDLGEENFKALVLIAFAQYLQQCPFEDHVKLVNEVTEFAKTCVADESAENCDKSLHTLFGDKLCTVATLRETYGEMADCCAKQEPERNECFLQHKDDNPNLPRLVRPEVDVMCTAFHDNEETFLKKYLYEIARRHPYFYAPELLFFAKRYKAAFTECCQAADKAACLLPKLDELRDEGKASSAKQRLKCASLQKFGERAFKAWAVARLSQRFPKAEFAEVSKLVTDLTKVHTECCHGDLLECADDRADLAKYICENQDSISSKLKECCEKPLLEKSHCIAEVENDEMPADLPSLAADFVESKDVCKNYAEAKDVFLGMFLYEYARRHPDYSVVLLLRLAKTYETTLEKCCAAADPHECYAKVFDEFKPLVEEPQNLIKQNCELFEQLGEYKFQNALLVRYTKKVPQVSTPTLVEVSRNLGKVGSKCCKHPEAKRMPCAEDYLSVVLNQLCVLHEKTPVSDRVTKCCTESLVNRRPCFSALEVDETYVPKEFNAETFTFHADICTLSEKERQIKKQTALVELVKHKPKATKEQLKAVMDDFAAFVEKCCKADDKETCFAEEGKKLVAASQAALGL
The nature of data set [2]: Stability testing of peptides in human plasma. It counts as in vitro ADME. As to the method: Stability testing of peptides in plasma. The stability in plasma of the peptides […], […], […] and […] was determined as follows. […] The frozen blank plasma from human, rat and mouse had been thawed and heated to a temperature of 37° C. before addition of the stock solution. The spiked plasma samples were gently mixed and allowed to equilibrate for about 5 minutes before start of experiment. The plasma samples were incubated for 48 hours in a Galaxy® CO2 incubator at 37° C. […] The samples were stored at -70° C. until analysis. Plasma samples were assayed as follows. The 30 μL plasma samples were protein precipitated with […] of cold ethanol in a 96-well low bind plate (Eppendorf Protein LoBind). After mixing and centrifugation 100 μl the supernatant was transferred to a new plate and 1 μl was injected onto an analytical column. The analysis was performed using a μLC-system ([…]) coupled to a medium high resolution mass spectrometer (Perkin Elmer PenTOF) with positive electrospray ionisation. […] Flow: 0.1 ml/min using a slow reversed phase gradient. […] Products with +1 mass may arise from deamidation at amide groups of glutamine or at the C-terminus. Cleavage products arise from the action of the protease DPP IV in plasma. Both the degradation of the peptides and formation of peptide products were reported in percentage of the initial peptide concentration. Peaks were integrated and % remaining peptide was calculated: […] Levels of deamidation and DPP IV cleavage were low for […] and […].

The next data set has as its target T2, Human GIPr (Homo sapiens, UniProt P48546).
T2 construct: expressed in transfected cells
T2 sequence (P48546 22-466): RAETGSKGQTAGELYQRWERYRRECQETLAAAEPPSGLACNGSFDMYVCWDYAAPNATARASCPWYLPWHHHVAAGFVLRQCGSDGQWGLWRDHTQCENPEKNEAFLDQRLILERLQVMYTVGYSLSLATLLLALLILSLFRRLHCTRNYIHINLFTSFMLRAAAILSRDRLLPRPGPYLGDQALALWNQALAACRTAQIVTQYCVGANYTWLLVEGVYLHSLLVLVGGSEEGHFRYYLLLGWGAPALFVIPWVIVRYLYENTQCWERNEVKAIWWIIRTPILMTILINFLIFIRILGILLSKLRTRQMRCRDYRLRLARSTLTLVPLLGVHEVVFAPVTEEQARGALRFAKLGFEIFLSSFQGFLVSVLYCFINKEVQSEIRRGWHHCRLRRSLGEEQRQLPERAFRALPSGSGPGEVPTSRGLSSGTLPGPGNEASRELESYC
The data set is described as follows: cAMP activity assay 1 in assay medium, human GIP receptor. The class given is cell-based. The settings on record: additional peptides (Table 4).

A further data set has as its target Human GLP1R (Homo sapiens, UniProt P43220). The settings on record: read-out: hGLP1R EC50; assay 1; additional peptides (Table 4).
Data set [3] has as its target T1, Human GlucR. Particulars: read-out: hGlucR EC50; assay 1; additional peptides (Table 4).
Procedure: (§1) All sample dilutions were made in duplicate.
(§2) A frozen cryo-vial of cells expressing the receptor of interest was thawed rapidly in a water-bath, transferred to pre-warmed assay media and spun at 240×g for 5 minutes. Cells were re-suspended in assay media at an optimised concentration (e.g. hGCGR cells at 1×10^5 cells/ml, hGLP-1R and hGIPR cells at 0.5×10^5 cells/ml).
(§3) To this, 5 μL cell suspension was added and the plates incubated at room temperature for 30 minutes.
(§4) cAMP levels were measured using a commercially available cAMP dynamic 2 HTRF kit (Cisbio, Cat #62AM4PEJ), following the two step protocol as per manufacturer's recommendations. In brief; anti-cAMP cryptate (donor fluorophore) and cAMP-d2 (acceptor fluorophore) were made up separately by diluting each 1/20 in conjugate & lysis buffer provided in the kit. 5 μL anti-cAMP cryptate was added to all wells of the assay plate, and 5 μL cAMP-d2 added to all wells except non-specific binding (NSB) wells, to which conjugate and lysis buffer was added.

Read-outs that look alike come from different tables or passages of the source. Numbered stars: 1 amine (or outer) side, 2 acyl side, 3 side chain; on linkers, the order of the positions; unused ones are H or OH. Side chains are listed from the residue outwards. Peptide text beside a SMILES is read from it. * marks the point of attachment. γGlu = O=C(O)[C@H](CCC(=O)[*:2])N[*:1]; Palmitoyl = CCCCCCCCCCCCCCCC(=O)*

Human GLP1R, sequence (P43220 24-463): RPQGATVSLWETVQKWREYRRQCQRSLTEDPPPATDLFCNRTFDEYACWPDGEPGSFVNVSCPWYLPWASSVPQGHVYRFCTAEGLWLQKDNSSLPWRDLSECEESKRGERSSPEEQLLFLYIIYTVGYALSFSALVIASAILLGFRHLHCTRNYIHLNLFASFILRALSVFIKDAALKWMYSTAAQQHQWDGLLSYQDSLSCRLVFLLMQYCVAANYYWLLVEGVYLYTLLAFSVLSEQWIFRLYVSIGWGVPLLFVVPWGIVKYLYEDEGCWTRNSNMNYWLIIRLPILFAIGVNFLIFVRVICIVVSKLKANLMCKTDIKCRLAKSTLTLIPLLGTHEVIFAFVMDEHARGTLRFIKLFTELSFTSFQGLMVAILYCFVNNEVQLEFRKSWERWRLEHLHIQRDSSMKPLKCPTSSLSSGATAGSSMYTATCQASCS
T1 sequence (P47871 26-477): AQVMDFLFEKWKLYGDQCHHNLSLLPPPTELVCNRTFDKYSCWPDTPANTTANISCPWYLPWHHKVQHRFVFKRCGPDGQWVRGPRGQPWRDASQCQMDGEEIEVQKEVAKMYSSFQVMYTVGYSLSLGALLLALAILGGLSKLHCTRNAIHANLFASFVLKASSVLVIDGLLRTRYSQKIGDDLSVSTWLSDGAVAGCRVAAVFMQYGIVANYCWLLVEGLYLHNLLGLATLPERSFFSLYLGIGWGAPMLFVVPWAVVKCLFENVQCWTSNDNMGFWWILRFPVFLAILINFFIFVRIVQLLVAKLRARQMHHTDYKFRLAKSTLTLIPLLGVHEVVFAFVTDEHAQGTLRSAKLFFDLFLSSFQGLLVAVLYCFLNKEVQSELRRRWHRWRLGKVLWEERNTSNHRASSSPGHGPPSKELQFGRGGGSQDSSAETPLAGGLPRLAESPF
Mouse GlucR, sequence (Q61606 27-485): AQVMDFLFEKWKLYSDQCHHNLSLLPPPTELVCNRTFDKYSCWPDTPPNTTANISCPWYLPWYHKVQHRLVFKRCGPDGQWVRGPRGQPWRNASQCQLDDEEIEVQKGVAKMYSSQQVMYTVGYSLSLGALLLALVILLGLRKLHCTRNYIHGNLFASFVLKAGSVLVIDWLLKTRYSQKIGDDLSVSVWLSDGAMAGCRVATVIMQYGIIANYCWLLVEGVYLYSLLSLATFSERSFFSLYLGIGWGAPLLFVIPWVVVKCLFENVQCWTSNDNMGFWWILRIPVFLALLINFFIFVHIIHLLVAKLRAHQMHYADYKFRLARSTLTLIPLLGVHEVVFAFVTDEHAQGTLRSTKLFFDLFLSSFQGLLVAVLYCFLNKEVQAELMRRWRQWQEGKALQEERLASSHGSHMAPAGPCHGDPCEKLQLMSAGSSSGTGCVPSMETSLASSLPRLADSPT
Procedure for Human GIPr: as §1, §2, §3, §4
Procedure for Human GLP1R: as §1, §2, §3, §4
Procedure for physchem: Peptide solubility was assessed in three different isotonic formulations: • 1. […] Final formulation pH=7.2 • 2. Back up formulation 1 (BF1)=0.05M Tris, 50 mM Arginine/Proline. Final formulation pH=8.0 • 3. […] Final formulation pH=7.0

Turning to `CCCCCCCCCCCCCCCC(=O)N[C@@H](CCC(=O)NCCCC[C@H](NC(=O)[C@H](CO)NC(=O)[C@H](CC(=O)O)NC(=O)[C@H](CC(C)C)NC(=O)[C@H](Cc1ccc(O)cc1)NC(=O)[C@H](CCCCN)NC(=O)[C@H](CO)NC(=O)[C@H](Cc1ccc(O)cc1)NC(=O)[C@H](CC(=O)O)NC(=O)[C@H](CO)NC(=O)[C@@H](NC(=O)[C@H](Cc1ccccc1)NC(=O)[C@@H](NC(=O)CNC(=O)[C@H](CCC(N)=O)NC(=O)CNC(=O)[C@@H](N)Cc1c[nH]cn1)[C@@H](C)O)[C@@H](C)O)C(=O)N[C@@H](CCCNC(=N)N)C(=O)N[C@@H](C)C(=O)N[C@@H](CCC(N)=O)C(=O)N[C@@H](CC(=O)O)C(=O)N[C@@H](Cc1ccccc1)C(=O)N[C@H](C(=O)N[C@@H](CCC(N)=O)C(=O)N[C@@H](Cc1c[nH]c2ccccc12)C(=O)N[C@@H](CC(C)C)C(=O)N[C@H](C(=O)N[C@@H](C)C(=O)NCC(=O)NCC(N)=O)C(C)C)C(C)C)C(=O)O` [Peptide G380], the “Mouse GlucR/GLP1R Ratio” value on Mouse GlucR turned out to be 0.006. The “Human GlucR/GLP1R Ratio” value at Human GlucR [1] was 0.013.
For `CCCCCCCCCCCCCCCC(=O)N[C@@H](CCC(=O)NCCCC[C@H](NC(=O)[C@H](CC(=O)O)NC(=O)[C@H](CO)NC(=O)[C@@H](NC(=O)[C@H](Cc1ccccc1)NC(=O)[C@@H](NC(=O)CNC(=O)[C@H](CCC(N)=O)NC(=O)[C@H](CO)NC(=O)[C@@H](N)Cc1c[nH]cn1)[C@@H](C)O)[C@@H](C)O)C(=O)N[C@@H](CO)C(=O)N[C@@H](CCC(=O)O)C(=O)N[C@@H](Cc1ccc(O)cc1)C(=O)N[C@@H](CC(C)C)C(=O)N[C@@H](CC(=O)O)C(=O)N[C@@H](CO)C(=O)N[C@@H](CCC(=O)O)C(=O)N[C@@H](CCCNC(=N)N)C(=O)N[C@@H](C)C(=O)N[C@@H](CCCNC(=N)N)C(=O)N[C@@H](CC(=O)O)C(=O)N[C@@H](Cc1ccccc1)C(=O)N[C@H](C(=O)N[C@@H](C)C(=O)N[C@@H](Cc1c[nH]c2ccccc12)C(=O)N[C@@H](CC(C)C)C(=O)N[C@@H](CCC(=O)O)C(=O)N[C@@H](C)C(=O)NCC(=O)NCC(=O)O)C(C)C)C(=O)O` [Peptide G933], in the data set with DIO mice (5 nmol/kg s.c. twice daily for 14 days), the “BW day 14 (% change of vehicle mean)” value is on record as −11%. In the data set with DIO mice (5 nmol/kg s.c. twice daily), the HOMA was found to be 3.31, the “Hepatic TG (g TG/100g tissue)” value is given as 11.3 g TG/100g tissue, the “Plasma NEFA” value was found to be 0.28 mM and the “Plasma TG” value came out at 0.19 mM. Further, in the data set with DIO mice (5 nmol/kg s.c. twice daily), the Glucose turned out to be 6.2 mM and the Insulin was determined as 0.53 nM. In addition, the “BW day 14 (% change of vehicle mean)” value with DIO mice (10 nmol/kg s.c. twice daily for 14 days) is listed as −19%. In addition, in the data set with DIO mice (10 nmol/kg s.c. twice daily), the HOMA came to 1.98, the “Hepatic TG (g TG/100g tissue)” value is given as 14.7 g TG/100g tissue, the “Plasma NEFA” value amounted to 0.27 mM and the “Plasma TG” value was found to be 0.16 mM. In the data set with DIO mice (10 nmol/kg s.c. twice daily), this compound came in with a Glucose of 7.2 mM and an Insulin of 0.27 nM. In addition, the “effect on body weight over the 14 day dosing period” value in the data set with DIO mice (study B, FIGS. 5-8) was “dose dependent and continuous weight loss”. The solubility in the data set “physchem” (pH 7) is at least 10000 µg/mL. Besides, the solubility in “physchem” (pH 7.2) was at least 5000 µg/mL. The “free peptide at 4.4% HSA” value at human serum albumin is 0.29%. For the same compound, the “% DPP cleaved product/+1 DPP cleaved product” value in [2] was under 1%.
Regarding `CCCCCCCCCCCCCCCC(=O)N[C@@H](CCC(=O)NCCCC[C@H](NC(=O)[C@H](CO)NC(=O)[C@H](CC(=O)O)NC(=O)[C@H](CC(C)C)NC(=O)[C@H](Cc1ccc(O)cc1)NC(=O)[C@H](CCCCN)NC(=O)[C@H](CO)NC(=O)[C@H](Cc1ccc(O)cc1)NC(=O)[C@H](CC(=O)O)NC(=O)[C@H](CO)NC(=O)[C@@H](NC(=O)[C@H](Cc1ccccc1)NC(=O)[C@@H](NC(=O)CNC(=O)[C@H](CCC(N)=O)NC(=O)[C@H](CO)NC(=O)[C@@H](N)Cc1c[nH]cn1)[C@@H](C)O)[C@@H](C)O)C(=O)N[C@@H](CCCNC(=N)N)C(=O)N[C@@H](C)C(=O)N[C@@H](CCC(=O)O)C(=O)N[C@@H](CC(=O)O)C(=O)N[C@@H](Cc1ccccc1)C(=O)N[C@H](C(=O)N[C@@H](CCC(N)=O)C(=O)N[C@@H](Cc1c[nH]c2ccccc12)C(=O)N[C@@H](CC(C)C)C(=O)N[C@H](C(=O)N[C@@H](C)C(=O)NCC(=O)NCC(N)=O)C(C)C)C(C)C)C(=O)O` [g599], the EC50 at Human GIPr (g688, read-out: hGIPR EC50) worked out at 112 nM.
On to `CCCCCCCCCCCCCCCC(=O)N[C@@H](CCC(=O)NCCCC[C@H](NC(=O)[C@H](Cc1ccc(O)cc1)NC(=O)[C@H](CCCNC(=N)N)NC(=O)[C@H](CO)NC(=O)[C@H](Cc1ccc(O)cc1)NC(=O)[C@H](CC(=O)O)NC(=O)[C@H](CO)NC(=O)[C@@H](NC(=O)[C@H](Cc1ccccc1)NC(=O)[C@@H](NC(=O)CNC(=O)[C@H](CCC(N)=O)NC(=O)[C@H](CO)NC(=O)[C@@H](N)Cc1c[nH]cn1)[C@@H](C)O)[C@@H](C)O)C(=O)N[C@@H](CC(=O)O)C(=O)N[C@@H](CO)C(=O)N[C@@H](CCCNC(=N)N)C(=O)N[C@@H](CO)C(=O)N[C@@H](C)C(=O)N[C@@H](CCCNC(=N)N)C(=O)N[C@@H](CC(=O)O)C(=O)N[C@@H](Cc1ccccc1)C(=O)N[C@H](C(=O)N[C@@H](C)C(=O)N[C@@H](Cc1c[nH]c2ccccc12)C(=O)N[C@@H](CC(C)C)C(=O)N[C@@H](CCC(=O)O)C(=O)N[C@@H](C)C(N)=O)C(C)C)C(=O)O` [g850] (H-HSQGTFTSDYSRYK([γGlu-Palmitoyl])DSRSARDFVAWLEA-NH2), for which the EC50 at Human GLP1R amounted to 0.0212 nM; at Human GIPr (read-out: hGIPR EC50), 89.6 nM; on Human GlucR [3], 0.00219 nM.
For “Listed in the section of parent HSQGTFTSDYSKYLDSRRAQDFVQWLEAGG; no modification printed [g536]”, the concentration for a half-maximal effect (EC50) at Human GLP1R stood at 0.0745 nM.

(Values after patent US20220098265A1 (MEDIMMUNE LIMITED, priority 2012, published 2022).)
